Data as given in publication PMC10289985, “Brigatinib pharmacokinetics in patients with chronic hepatic impairment” (Investigational New Drugs, 2023).
Where two headings read alike, the source gives them in different places.

How the values were obtained:
[1] = Single oral 90-mg dose plasma PK in participants with chronic hepatic impairment and matched healthy participants; type: in vivo, human; conditions: for Tmax / half-life / AUC(0-t) / AUC(0-inf): human, plasma, po, 90 mg; for Tmax / half-life / AUC(0-t) / AUC(0-inf) / Tmax, median (range) / CL/Fu, unbound apparent oral clearance, geometric mean (geometric %CV) / Vz/Fu, unbound apparent volume of distribution, geometric mean (geometric %CV) / Cmax,u, geometric mean (geometric %CV): single oral 90 mg; for Tmax / Tmax, median (range): fasted; for Tmax: read-out: Tmax, median (range); for half-life: read-out: t1/2, terminal elimination half-life, geometric mean (geometric %CV) (converted); for AUC(0-t) / AUC(0-inf) / Cmax,u, geometric mean (geometric %CV): unbound; for AUC(0-t): read-out: AUC0−last,u, geometric mean (geometric %CV); for AUC(0-inf): read-out: AUC0−∞,u, geometric mean (geometric %CV)
Protocol: This open-label, parallel-group, inpatient, nonrandomized study was performed at 1 clinical study site, the Orlando Clinical Research Center (Orlando, FL, USA), and evaluated the PK of brigatinib after administration of a single oral 90-mg dose in participants with chronic hepatic impairment and in healthy participants with normal hepatic function. The study consisted of a screening period of up to 22 days and a single treatment and assessment period that included a 10-day (9-night) inpatient stay (Day −1 to Day 9). On the morning of Day 1, each participant received a single oral dose of 90 mg brigatinib under fasting conditions with approximately 240 mL of water. Fasting was required for approximately 10 hours before study drug dosing, for approximately 4 hours postdose, and for at least 8 hours before clinical laboratory tests. Meals were standardized for all participants. Water was permitted ad libitum except for the period between approximately 1 hour before and 1 hour after dosing. Participants remained in the clinic through 192 hours postdose for PK sample collection and were discharged from the clinical research site on Day 9.
Blood samples were collected before brigatinib administration (predose) and at 0.5, 1, 1.5, 2, 2.5, 3, 4, 6, 8, 12, 24, 36, 48, 72, 96, 120, 144, 168, and 192 hours following brigatinib administration to measure brigatinib plasma concentrations. Samples to assess brigatinib plasma protein binding were collected at 2, 8, and 24 hours postdose.
Plasma samples were analyzed for brigatinib concentrations using a previously reported dual-range assay with a lower limit of quantitation of 0.100 ng/mL and an upper limit of quantitation of 2500 ng/mL [14].
The PK-evaluable population was defined as participants who received the single dose of brigatinib, had no major protocol deviations that affected the PK analyses, and had sufficient data to calculate PK parameters. Individual participant brigatinib plasma concentration-time profiles were analyzed via noncompartmental analysis using Phoenix WinNonLin version 6.4 (Certara, Inc., Princeton, NJ) to calculate plasma PK parameters. Plasma PK parameters calculated for brigatinib included maximum observed plasma concentration (Cmax), time to first maximum observed plasma concentration (Tmax), area under the plasma concentration-time curve from time 0 to the time of the last measurable concentration (AUC0−last), area under the plasma concentration-time curve from time 0 to infinity (AUC0−∞), terminal elimination half-life (t1/2), apparent oral clearance (CL/F), and apparent volume of distribution during the terminal disposition phase (Vz/F). The fraction of unbound brigatinib in plasma was calculated using the following formula: % free (unbound) = [free brigatinib concentration measured in buffer after dialysis] / [total brigatinib concentration measured in plasma] × 100. Unbound brigatinib PK parameters were derived from the following formula (except for the unbound CL/F and unbound Vz/F, which were calculated as total CL/F or total Vz/F divided by the individual participant’s overall mean fraction unbound): unbound PK parameter = (PK parameter based on total concentrations) × (individual participant’s overall mean fraction unbound value).
Descriptive statistics, including mean, standard deviation (SD), percent coefficient of variation (%CV), and median, minimum, and maximum values, were calculated for each time point for plasma brigatinib concentrations for the healthy participant and each Child-Pugh group. Arithmetic means, SD, %CV, median, minimum, and maximum values, and the number of observations were calculated for the PK parameters. Geometric mean and geometric %CV were derived for all parameters, except Tmax, which was reported as median (minimum–maximum). Statistical comparisons of unbound brigatinib PK parameters were made among the hepatic function groups (ie, healthy participants, Child-Pugh classes A, B, and C) using an analysis of variance. […]

[2] = Safety and adverse event monitoring after a single 90-mg dose; type: in vivo, human
Protocol: All enrolled participants who received brigatinib were included in the safety population. Adverse event (AE) monitoring occurred throughout the study. Physical examination was conducted at screening with additional symptom-directed physical examinations performed at the investigator’s discretion on study Days −1 and 9. Height, weight, and BMI were recorded at screening. Vital signs were recorded at screening; on Day −1; predose and at 0.5, 1, 2, 3, 4, 6, 8, 12, 24, 36, 48, 72, 96, 120, 144, and 168 hours postdose; and on Day 9. Electrocardiograms were conducted at screening, on Day −1, predose and at 3 and 48 hours postdose, and on Day 9. Clinical laboratory evaluations were performed at screening and on Days −1 and 9 and were reviewed by the investigator for clinical significance.

[3] = tested on: ALK-positive metastatic NSCLC; parameters: method as in PMID 36065449; conditions: 180 mg QD with 7-day lead-in at 90 mg QD; median follow-up 28.3 months; cited from earlier work
[4] = tested on: TKI-naive ALK+ NSCLC; parameters: method as in PMID 34537440; conditions: 95% CI 0.35–0.66; P < 0.0001; cited from earlier work
[5] = tested on: CYP3A; parameters: method as in PMID 31287236; conditions: cited from earlier work
[6] = mild (Child-Pugh A) vs normal hepatic function
[7] = moderate (Child-Pugh B) vs normal hepatic function
[8] = severe (Child-Pugh C) vs normal hepatic function

COc1cc(N2CCC(N3CCN(C)CC3)CC2)ccc1Nc1ncc(Cl)c(Nc2ccccc2P(C)(C)=O)n1 [brigatinib]
geometric mean AUC0−last,u higher than in healthy participants ([1]; Child-Pugh C vs healthy participants with normal hepatic function): 34%
Tmax ([1]; mild (Child-Pugh A) hepatic impairment (n=6)): 1.75 h
Tmax ([1]; severe (Child-Pugh C) hepatic impairment (n=6)): 0.5 h
half-life ([1]; mild (Child-Pugh A) (n=6)): 47 h
half-life ([1]; moderate (Child-Pugh B) (n=6)): 48.7 h
half-life ([1]; normal hepatic function (n=9)): 47.6 h
half-life ([1]; severe (Child-Pugh C) (n=6)): 51 h
AUC(0-t) ([1]; mild (Child-Pugh A) (n=6)): 522 ng·h/mL
AUC(0-inf) ([1]; mild (Child-Pugh A) (n=6)): 539 ng·h/mL
AUC(0-t) ([1]; moderate (Child-Pugh B) (n=6)): 578 ng·h/mL
AUC(0-inf) ([1]; moderate (Child-Pugh B) (n=6)): 601 ng·h/mL
AUC(0-t) ([1]; normal hepatic function (n=9)): 581 ng·h/mL
AUC(0-inf) ([1]; normal hepatic function (n=9)): 603 ng·h/mL
AUC(0-t) ([1]; severe (Child-Pugh C) (n=6)): 781 ng·h/mL
AUC(0-inf) ([1]; severe (Child-Pugh C) (n=6)): 829 ng·h/mL
AUC0−last,u geometric LSM ratio (90% CI) [1, 6]: 89.77 (70.37–114.52) %
AUC0−∞,u geometric LSM ratio (90% CI) [1, 6]: 89.32 (69.79–114.31) %
Cmax,u geometric LSM ratio (90% CI) [1, 6]: 94.75 (75.36–119.12) %
AUC0−last,u geometric LSM ratio (90% CI) [1, 7]: 99.41 (77.93–126.82) %
AUC0−∞,u geometric LSM ratio (90% CI) [1, 7]: 99.55 (77.78–127.41) %
Cmax,u geometric LSM ratio (90% CI) [1, 7]: 92.01 (73.18–115.68) %
AUC0−last,u geometric LSM ratio (90% CI) [1, 8]: 134.38 (105.34–171.43) %
AUC0−∞,u geometric LSM ratio (90% CI) [1, 8]: 137.41 (107.37–175.86) %
Cmax,u geometric LSM ratio (90% CI) [1, 8]: 165.26 (131.44–207.78) %
Tmax, median (range) ([1]; moderate (Child-Pugh B) hepatic impairment (n=6)): 2.00 (0.50‒3.00) h
Tmax, median (range) ([1]; normal hepatic function (n=9)): 2.00 (1.00‒6.00) h
CL/Fu, unbound apparent oral clearance, geometric mean (geometric %CV) ([1]; mild (Child-Pugh A) (n=6)): 167 (24.9) L/h
Vz/Fu, unbound apparent volume of distribution, geometric mean (geometric %CV) ([1]; mild (Child-Pugh A) (n=6)): 11,300 (45.8) L
CL/Fu, unbound apparent oral clearance, geometric mean (geometric %CV) ([1]; moderate (Child-Pugh B) (n=6)): 150 (39.8) L/h
Vz/Fu, unbound apparent volume of distribution, geometric mean (geometric %CV) ([1]; moderate (Child-Pugh B) (n=6)): 10,500 (29.5) L
CL/Fu, unbound apparent oral clearance, geometric mean (geometric %CV) ([1]; normal hepatic function (n=9)): 149 (25.0) L/h
Vz/Fu, unbound apparent volume of distribution, geometric mean (geometric %CV) ([1]; normal hepatic function (n=9)): 10,200 (31.0) L
CL/Fu, unbound apparent oral clearance, geometric mean (geometric %CV) ([1]; severe (Child-Pugh C) (n=6)): 109 (20.0) L/h
Vz/Fu, unbound apparent volume of distribution, geometric mean (geometric %CV) ([1]; severe (Child-Pugh C) (n=6)): 7,990 (33.2) L
Cmax,u, geometric mean (geometric %CV) ([1]; mild (Child-Pugh A) (n=6)): 28.7 (9.5) ng/mL
Cmax,u, geometric mean (geometric %CV) ([1]; moderate (Child-Pugh B) (n=6)): 27.8 (24.8) ng/mL
Cmax,u, geometric mean (geometric %CV) ([1]; normal hepatic function (n=9)): 30.3 (27.2) ng/mL
Cmax,u, geometric mean (geometric %CV) ([1]; severe (Child-Pugh C) (n=6)): 50.0 (34.5) ng/mL
number of TEAEs ([2]; Child-Pugh A group): 2 events
participants with one or more TEAEs ([2]; Child-Pugh A group (n=6)): 2 participants
number of TEAEs ([2]; Child-Pugh B group): 13 events
participants with moderate TEAEs possibly related to the study drug ([2]; Child-Pugh B group): Two
participants with one or more TEAEs ([2]; Child-Pugh B group (n=6)): 4 participants
number of TEAEs ([2]; Child-Pugh C group): 2 events
participants with one or more TEAEs ([2]; Child-Pugh C group (n=6)): 2 participants
participants with one or more treatment-emergent adverse events (TEAEs) ([2]; all 27 study participants, single 90 mg): 13 participants
participants with constipation ([2]; all participants): 2 participants
participants with dyspnea ([2]; all participants): 2 participants
participants with headache ([2]; all participants): 4 participants
participants with hypertension ([2]; all participants): 2 participants
participants with nausea ([2]; all participants): 2 participants
changes in laboratory values or electrocardiogram measurements ([2]; during the study): No clinically significant changes
discontinuation due to an AE ([2]; during the study): no participants discontinued
serious AEs ([2]; during the study): no serious AEs
number of TEAEs ([2]; healthy participant group): 5 events
participants with one or more TEAEs ([2]; healthy participant group (n=9)): 5 participants
tolerability ([2]; single 90-mg dose, healthy participants and participants with hepatic impairment): well tolerated
IRC-assessed confirmed objective response rate (ORR) [3]: 56%
IRC-assessed median progression-free survival (PFS) [3]: 16.7 months
PFS hazard ratio, brigatinib compared with crizotinib [4]: 0.48
decrease of AUC0−∞ with the strong CYP3A inducer rifampicin [5]: 80%
increase of AUC0−∞ with the strong CYP3A inhibitor itraconazole [5]: 101%
